Data published in patent publication US10392404B2, “Compounds and compositions as kinase inhibitors” (NOVARTIS AG, priority 2014, dated 2019).

Tests used:
[1] = molecular target: T1, C-RAF (Homo sapiens, UniProt P04049, Y340E/Y341E); assay: In vitro Raf activity determination (Alpha Screen, biotinylated kinase-dead MEK1 substrate), C-Raf; type: biochemical; settings: c-Raf approximately 4 nM; ATP 1 μM; pre-incubation 60 minutes; reaction 1 hour at room temperature
T1 construct: His tag (implied by nickel chromatography) (cleaved yes); StrepII tag (cleaved yes); made in house; host or cells: Sf9 insect cells (baculovirus), CRAF and h14-3-3 zeta co-expressed; MEK1 substrate from E. coli
T1 sequence (P04049 whole entry Y340E/Y341E): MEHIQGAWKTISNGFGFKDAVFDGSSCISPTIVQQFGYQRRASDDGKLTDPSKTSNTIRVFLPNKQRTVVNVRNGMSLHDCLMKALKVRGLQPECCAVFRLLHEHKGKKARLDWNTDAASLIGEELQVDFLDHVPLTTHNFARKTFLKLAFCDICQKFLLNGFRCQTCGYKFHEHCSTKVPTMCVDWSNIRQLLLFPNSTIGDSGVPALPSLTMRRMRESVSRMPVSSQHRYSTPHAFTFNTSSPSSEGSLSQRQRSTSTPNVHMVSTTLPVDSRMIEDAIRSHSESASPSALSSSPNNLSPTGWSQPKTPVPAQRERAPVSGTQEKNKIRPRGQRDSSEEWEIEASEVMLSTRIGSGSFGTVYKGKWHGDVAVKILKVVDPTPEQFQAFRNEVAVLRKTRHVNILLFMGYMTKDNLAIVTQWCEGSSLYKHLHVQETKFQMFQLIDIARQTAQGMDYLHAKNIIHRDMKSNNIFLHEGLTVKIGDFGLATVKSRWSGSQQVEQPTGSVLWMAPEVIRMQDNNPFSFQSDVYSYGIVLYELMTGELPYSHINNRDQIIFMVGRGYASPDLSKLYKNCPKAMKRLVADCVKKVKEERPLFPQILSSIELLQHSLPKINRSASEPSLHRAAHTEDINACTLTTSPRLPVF
T1 sequence (P63104 whole entry partner): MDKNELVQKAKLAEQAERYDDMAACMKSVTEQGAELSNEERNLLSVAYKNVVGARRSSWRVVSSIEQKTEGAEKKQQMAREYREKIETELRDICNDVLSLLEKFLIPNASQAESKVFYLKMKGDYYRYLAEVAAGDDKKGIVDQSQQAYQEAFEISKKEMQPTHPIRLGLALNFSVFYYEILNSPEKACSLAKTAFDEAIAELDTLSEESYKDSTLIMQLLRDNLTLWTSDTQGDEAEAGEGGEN
Outline: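 AlphaScreen read-out of MEK phosphorylation using an anti-phospho-MEK1/2 antibody after a 1 hour room-temperature reaction at 1 μM ATP. Enzyme: approximately 4 nM Sf9-expressed full-length activated C-Raf (Y340E/Y341E, with 14-3-3ζ) on approximately 10 nM biotinylated K97R MEK1, after 60 min compound preincubation. IC50 by non-linear fit.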

[2] = molecular target: T2, b-Raf (V600E) (Homo sapiens, UniProt P15056, V600E); assay: In vitro Raf activity determination (Alpha Screen, biotinylated kinase-dead MEK1 substrate), B-Raf; type: biochemical; settings: b-Raf (V600E) approximately 4 pM; ATP 10 μM; pre-incubation 60 minutes; reaction 3 hours at room temperature
T2 construct: made in house
T2 sequence (P15056 whole entry V600E): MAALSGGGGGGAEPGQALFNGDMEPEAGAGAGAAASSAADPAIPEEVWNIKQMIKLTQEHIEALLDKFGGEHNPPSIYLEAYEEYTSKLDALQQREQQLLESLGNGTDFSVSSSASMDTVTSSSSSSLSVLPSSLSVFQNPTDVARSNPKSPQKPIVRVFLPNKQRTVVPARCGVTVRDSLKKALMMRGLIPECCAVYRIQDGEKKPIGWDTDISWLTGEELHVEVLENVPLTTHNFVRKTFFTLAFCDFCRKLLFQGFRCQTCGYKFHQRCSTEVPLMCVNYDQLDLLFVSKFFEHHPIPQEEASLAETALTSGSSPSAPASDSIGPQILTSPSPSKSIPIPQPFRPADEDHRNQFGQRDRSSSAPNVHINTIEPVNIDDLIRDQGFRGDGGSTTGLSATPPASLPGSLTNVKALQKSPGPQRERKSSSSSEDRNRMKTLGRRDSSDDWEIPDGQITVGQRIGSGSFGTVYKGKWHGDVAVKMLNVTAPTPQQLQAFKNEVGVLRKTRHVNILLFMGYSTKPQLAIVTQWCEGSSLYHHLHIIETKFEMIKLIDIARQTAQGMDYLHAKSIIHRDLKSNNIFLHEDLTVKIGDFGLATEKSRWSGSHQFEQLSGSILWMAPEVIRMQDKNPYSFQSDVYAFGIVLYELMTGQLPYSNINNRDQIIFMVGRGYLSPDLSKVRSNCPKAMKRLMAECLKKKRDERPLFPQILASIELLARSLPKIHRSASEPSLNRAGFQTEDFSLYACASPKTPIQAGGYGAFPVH
Outline: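 IC50 from non-linear regression of AlphaScreen phospho-MEK signal (anti-p-MEK1/2 antibody). b-Raf(V600E), about 4 pM, phosphorylated ~10 nM biotinylated K97R MEK1 with 10 μM ATP for 3 h at room temperature after 60 min compound pre-incubation; buffer pH 7.5 Tris, 15 mM MgCl2, 1 mM DTT.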

Compound	IC50 [1]	IC50 [2]
Cc1ncc(NC(=O)c2ccnc(C(F)(F)F)c2)cc1-c1cnc(N2CCS(=O)(=O)CC2)c(C#N)c1 [Example 86, N-(5′-cyano-6′-(1,1-dioxidothiomorpho-lino)-2-methyl-[3,3′-bipyridin]-5-yl)-2-(trifluoromethyl) isonicotinamide]	0.438 nM	2.98 nM
Cc1ncc(NC(=O)c2ccnc(C(C)(C)C#N)c2)cc1-c1cnc(OC2COC2)c(C#N)c1 [Example 94, N-(5′-cyano-2-methyl-6′-(oxetan-3-yloxy)-[3,3′-bipyridin]-5-yl)-2-(2-cyanopropan-2-yl)isonicotinamide]	5.98 nM	23.6 nM
Cc1ncc(NC(=O)c2ccnc(C(C)(C)C#N)c2)cc1-c1cnc(N2CCO[C@@H](C)C2)c(C#N)c1 [Example 74, (S)-N-(5′-cyano-2-methyl-6′-(2-methylmorpholino)-[3,3′-bipyridin]-5-yl)-2-(2-cyanopropan-2-yl)isonicotinamide]	1.64 nM	5.54 nM
Cc1ccc(NC(=O)c2ccnc(C3(C#N)CC3)c2)cc1-c1cnc(N2CCNCC2)c(C#N)c1 [Example 145, N-(3-(5-cyano-6-(piperazin-1-yl)pyridin-3-yl)-4-methylphenyl)-2-(1-cyanocyclopropyl) isonicotinamide]	0.148 nM	0.56 nM
Cc1ccc(NC(=O)c2ccnc(C(C)(C)C#N)c2)cc1-c1cnc(NC(C)C)c(C#N)c1 [Example 20, N-(3-(5-cyano-6-(isopropylamino)pyridin-3-yl)-4-methylphenyl)-2-(2-cyanopropan-2-yl)isonicotinamide]	0.467 nM	1.67 nM
Cc1ccc(NC(=O)c2ccnc(C(F)(F)F)c2)cc1-c1cnc(N2CCNCC2)c(C#N)c1 [Example 153, N-(3-(5-cyano-6-(piperazin-1-yl)pyridin-3-yl)-4-methylphenyl)-2-(trifluoromethyl) isonicotinamide]	0.15 nM	0.7 nM
Cc1ncc(NC(=O)c2ccnc(C(C)(C)C#N)c2)cc1-c1cnc(N2C[C@H]3C[C@@H]2CO3)c(C#N)c1 [Example 90, N-(6′-((1R,4R)-2-oxa-5-azabicyclo[2.2.1]heptan-5-yl)-5′-cyano-2-methyl-[3,3′-bipyridin]-5-yl)-2-(2-cyanopropan-2-yl)isonicotinamide]	2.1 nM	8.94 nM
Cc1ccc(NC(=O)c2cccc(C(F)(F)F)c2)cc1-c1cc(C#N)c[nH]c1=O [Example 14, N-(3-(5-cyano-2-oxo-1,2-dihydropyridin-3-yl)-4-methylphenyl)-3-(trifluoromethyl) benzamide]	0.614 nM	11.2 nM
Cc1ncc(NC(=O)c2cccc(C(F)(F)F)c2)cc1-c1cnc(N2CC(O)C2)c(C#N)c1 [Example 67, N-(5′-cyano-6′-(3-hydroxyazetidin-1-yl)-2-methyl-[3,3′-bipyridin]-5-yl)-3-(trifluoromethyl) benzamide]	0.225 nM	1.24 nM
Cc1ccc(NC(=O)c2ccnc(C(F)F)c2)cc1-c1cnc(N2CCOCC2)c(C#N)c1 [Example 154, N-(3-(5-cyano-6-morpholinopyridin-3-yl)-4-methylphenyl)-2-(difluoromethyl) isonicotinamide]	0.0675 nM	0.342 nM
Cc1ncc(NC(=O)c2cccc(C(F)(F)F)c2)cc1-c1cnc(S(C)(=O)=O)c(C#N)c1 [Example 44, N-(5′-cyano-2-methyl-6′-(methylsulfonyl)-[3,3′-bipyridin]-5-yl)-3-(trifluoromethyl) benzamide]	2.8 nM	17.3 nM
Cc1ccc(NC(=O)c2cccc(S(C)(=O)=O)c2)cc1-c1cnc(N2CCNCC2)c(C#N)c1 [Example 159, N-(3-(5-cyano-6-(piperazin-1-yl)pyridin-3-yl)-4-methylphenyl)-3-(methylsulfonyl) benzamide]	0.197 nM	1.49 nM
Cc1ccc(NC(=O)c2ccnc(C(C)(C)C#N)c2)cc1-c1cnc(C(C)C)c(C#N)c1 [Example 122, N-(3-(5-cyano-6-isopropylpyridin-3-yl)-4-methylphenyl)-2-(2-cyanopropan-2-yl)isonicotinamide]	0.994 nM	2.8 nM
Cc1ccc(NC(=O)c2ccnc(C(C)(C)C#N)c2)cc1-c1cnc(Cl)c(C#N)c1 [Example 32, N-(3-(6-chloro-5-cyanopyridin-3-yl)-4-methylphenyl)-2-(2-cyanopropan-2-yl)isonicotinamide]	1.03 nM	5.73 nM
Cc1ccc(C(=O)Nc2cccc(C(F)(F)F)c2)cc1-c1cnc(N)c(C#N)c1 [Example 3, 3-(6-amino-5-cyanopyridin-3-yl)-4-methyl-N-(3-(trifluoromethyl)phenyl)benzamide]	0.125 nM	0.991 nM
Cc1ncc(NC(=O)c2ccnc(C(C)(C)C#N)c2)cc1-c1cnc(-n2ccnc2C)c(C#N)c1 [Example 81, N-(5′-cyano-2-methyl-6′-(2-methyl-1H-imidazol-1-yl)-[3,3′-bipyridin]-5-yl)-2-(2-cyanopropan-2-yl)isonicotinamide]	15.1 nM	90.6 nM
Cc1ccc(NC(=O)c2ccnc(C3CC3)c2)cc1-c1cnc(N2CCNCC2)c(C#N)c1 [Example 158, N-(3-(5-cyano-6-(piperazin-1-yl)pyridin-3-yl)-4-methylphenyl)-2-cyclopropyl isonicotinamide]	0.199 nM	1.09 nM
Cc1ncc(NC(=O)c2ccnc(C(F)(F)F)c2)cc1-c1cnc(S(C)(=O)=O)c(C#N)c1 [Example 45, N-(5′-cyano-2-methyl-6′-(methylsulfonyl)-[3,3′-bipyridin]-5-yl)-2-(trifluoromethyl) isonicotinamide]	1.13 nM	5.95 nM
Cc1ncc(NC(=O)c2ccnc(C(C)(C)C#N)c2)cc1-c1cnc(N2CCOCC2)c(C#N)c1 [Example 64, N-(5′-cyano-2-methyl-6′-morpholino-[3,3′-bipyridin]-5-yl)-2-(2-cyanopropan-2-yl)isonicotinamide]	0.832 nM	3.7 nM
Cc1cn(-c2ncc(-c3cc(NC(=O)c4ccnc(C(C)(C)C#N)c4)cnc3C)cc2C#N)cn1 [Example 84, N-(5′-cyano-2-methyl-6′-(4-methyl-1H-imidazol-1-yl)-[3,3′-bipyridin]-5-yl)-2-(2-cyanopropan-2-yl)isonicotinamide]	5.1 nM	25.1 nM

Results, then the compound that gave them:

IC50 [1]	IC50 [2]	Compound
0.222 nM	0.683 nM	Cc1ccc(NC(=O)c2ccnc(C(C)(C)F)c2)cc1-c1cnc(N2CCNCC2)c(C#N)c1 [Example 164, N-(3-(5-cyano-6-(piperazin-1-yl)pyridin-3-yl)-4-methylphenyl)-2-(2-fluoropropan-2-yl)isonicotinamide]
1.76 nM	9.92 nM	Cc1ncc(NC(=O)c2ccnc(C3CC3)c2)cc1-c1cnc(N2CC(C)(O)C2)c(C#N)c1 [Example 188, N-(5′-cyano-6′-(3-hydroxy-3-methylazetidin-1-yl)-2-methyl-[3,3′-bipyridin]-5-yl)-2-cyclopropyl-isonicotinamide]
5.21 nM	30.6 nM	CCn1cc(C(=O)Nc2cnc(C)c(-c3cnc(N4CC(C)(O)C4)c(C#N)c3)c2)cc(C(F)(F)F)c1=O [Example 191, N-(5′-cyano-6′-(3-hydroxy-3-methylazetidin-1-yl)-2-methyl-[3,3′-bipyridin]-5-yl)-1-ethyl-6-oxo-5-(trifluoromethyl)-1,6-dihydropyridine-3-carboxamide]
0.42 nM	3.18 nM	Cc1ccc(NC(=O)c2cc(C(C)(C)C#N)ccn2)cc1-c1cnc(N2CC(C)(O)C2)c(C#N)c1 [Example 232, N-(3-(5-cyano-6-(3-hydroxy-3-methylazetidin-1-yl)pyridin-3-yl)-4-methylphenyl)-4-(2-cyanopropan-2-yl)picolinamide]
1.75 nM	7.91 nM	Cc1ncc(NC(=O)c2ccnc(C(C)(C)F)c2)cc1-c1cnc(N2CC(C)(O)C2)c(C#N)c1 [Example 193, N-(5′-cyano-6′-(3-hydroxy-3-methylazetidin-1-yl)-2-methyl-[3,3′-bipyridin]-5-yl)-2-(2-fluoropropan-2-yl)isonicotinamide]
0.478 nM	1.63 nM	Cc1ncc(NC(=O)c2ccnc(C(F)(F)F)c2)cc1-c1cnc(NC2CCOCC2)c(C#N)c1 [Example 173, N-(5′-cyano-2-methyl-6′-((tetrahydro-2H-pyran-4-yl)amino)-[3,3′-bipyridin]-5-yl)-2-(trifluoromethyl) isonicotinamide]
148 nM	1970 nM	Cc1nn(C)cc1C(=O)Nc1cnc(C)c(-c2cnc(N(C)C)c(C#N)c2)c1 [Example 264, N-(5′-cyano-6′-(dimethylamino)-2-methyl-[3,3′-bipyridin]-5-yl)-1,3-dimethyl-1H-pyrazole-4-carboxamide]
0.32 nM	1.15 nM	Cc1ccc(NC(=O)c2ccnc(C(F)(F)F)c2)cc1-c1cnc(N2CC(C)(O)C2)c(C#N)c1 [Example 212, N-(3-(5-cyano-6-(3-hydroxy-3-methylazetidin-1-yl)pyridin-3-yl)-4-methylphenyl)-2-(trifluoromethyl) isonicotinamide]
0.401 nM	1.96 nM	CCn1cc(C(=O)Nc2ccc(C)c(-c3cnc(N(C)C)c(C#N)c3)c2)cc(C(F)(F)F)c1=O [Example 250, N-(3-(5-cyano-6-(dimethylamino)pyridin-3-yl)-4-methylphenyl)-1-ethyl-6-oxo-5-(trifluoromethyl)-1,6-dihydropyridine-3-carboxamide]
